The record followed here is PubChem BioAssay (NCI).

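Grown in 96-well plates, cells were treated for 48 hours with each compound at five concentrations. Insufficient inhibition: endpoint recorded as highest concentration tested. GI50 is the concentration that inhibits growth by half. TGI marks complete inhibition of growth.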 Bounds are passed on as bounds.

What all share (experiment): NCI anticancer screen, dose series, 48 h
For test [1], the system named is MDA-MB-231 breast.
The subject of test [2] is 786-0 renal.
The subject of test [3] is NCI-H226 lung.
The subject of test [4] is BT-549 breast.
In test [5] the test system is PC-3 prostate.
Test [6] deals with T-47D breast.
The test system of test [7] is SR leukemia.
Test [8] has as its system SNB-75 CNS.
Test [9] deals with XF 498 CNS.
For test [10], the system named is HOP-18 NSCLC.
The test system of test [11] is SNB-78 CNS.
The subject of test [12] is DMS 114 small cell lung.
Test [13] has as its system KM20L2 colon.
Test [14] deals with DMS 273 small cell lung.

Regarding `COC(=O)[C@]12CC[C@H]3CN(S(=O)(=O)c4ccc(C)cc4)[C@H]([C@H]31)[C@H](c1ccco1)N2S(=O)(=O)c1ccc(C)cc1`, the TGI is over 100 µM in test [1]; over 100 µM in test [2]; over 100 µM in [3]; 91.6 µM in test [4]; over 100 µM in [5]; 49.5 µM in test [6]. This compound displayed a TGI in test [7] of over 100 µM.

Consider `Nc1c(S(=O)(=O)O)cc(S(=O)(=O)O)c2ccc(N=Nc3ccccc3)c(O)c12`, for which the TGI in test [1], in [2], in test [3], in test [8], in test [4] and in [5] was over 100 µM in each case. The TGI in test [6] and in test [7] was over 100 µM each time.

Take `C/C=C\C1OC1(C)c1cc(=O)c2c(C)cc3c(c2o1)C(=O)c1c(O)c(C2CC(C)(N(C)C)C(OC(C)=O)C(C)O2)cc(C2CC(N(C)C)C(O)C(C)O2)c1C3=O` (stereo not given): the TGI in test [1] is 0.0285 µM; in test [2] it was 0.0158 µM; in test [3] it was 0.018 µM; in test [8], 0.0067 µM; in test [4], 0.0221 µM; in [5], 0.0131 µM. The compound also came in with a TGI in test [6] of 0.0324 µM.

Turning to `O=C(c1ccccc1)c1ccc(N2C(=O)/C(=C/c3ccccc3S)N=C2c2ccccc2)c(N2C(=O)/C(=C/c3ccccc3S)N=C2c2ccccc2)c1`, the TGI in test [1] was over 100 µM; in test [2], over 100 µM; in test [8], 65.8 µM; in test [4], over 100 µM; in [5] it was over 100 µM; in [6], over 100 µM. In test [7], this compound displayed a TGI of over 100 µM.

Turning to `O=C(O)C1=C(CO)Oc2cc3c(cc2C1c1ccc2c(c1)OCO2)OCO3` (stereo not given), the TGI in test [9], in test [10], in test [11], in test [12], in [8] and in test [13] was over 100 µM each time. In addition, the TGI in test [14] is over 100 µM.

In the case of `CCCCCCC(=O)OC[n+]1ccc(-c2c(COC(=O)NC(C)C)c(COC(=O)NC(C)C)c3n2CCC3)cc1`, the TGI in test [1], in test [2], in test [3], in [8], in [4] and in test [5] was over 100 µM throughout. The TGI in test [6] was over 100 µM; in [7], 50.9 µM.

For `CCOC(=O)c1sc2nc(SC)nc3c2c1NC(=O)CN3c1ccc(F)cc1`, the TGI in test [1] was over 100 µM; in test [3] it was 91.5 µM; in test [4] it was 43.3 µM; in test [5], 37 µM; in test [7], over 100 µM.

As for `C=C(C)[C@@H]1CC[C@]2(C(=O)O)CC[C@]3(C)[C@H](CC[C@@H]4[C@@]5(C)C/C(=C/c6ccco6)C(=O)C(C)(C)[C@@H]5CC[C@]43C)[C@@H]12`, in [8], the GI50 is over 100 µM and the TGI was over 100 µM. For the same compound, in test [6], the GI50 was 3.2 µM and the TGI was found to be 33.3 µM.

As for `C/C(=C\[Si](C)(C)c1ccco1)C(C)(O)[C@H](C)O` (stereo not given in full), the TGI is over 100 µM in test [1]; over 100 µM in test [2]; over 100 µM in test [3]; over 100 µM in [5]; 54.2 µM in test [6]; over 100 µM in [7].

For the compound `Cc1nn(CNc2ccc(F)c(Cl)c2)c(=S)n1/N=C/c1ccc(-c2ccc(Cl)cc2Cl)o1`, the TGI is 34.9 µM in test [1]; 29 µM in test [2]; 46.8 µM in test [3]; 30.9 µM in test [5]; 58.8 µM in test [6]; 14.7 µM in test [7].

`Cc1csc2nc(-c3cc([N+](=O)[O-])c(Cl)cc3Cl)c(/C=N/N=C(N)N)n12`: the TGI in test [1] was determined as 28 µM; in [2], 49.3 µM; in test [3] it was 34.6 µM; in test [4], 29.5 µM; in [5], 38.9 µM; in test [6], 33.1 µM. In test [7], the TGI turned out to be 4.84 µM.

For `CC(=O)NC1C(OCc2ccccc2)OC(CO)C(O)C1OCC(=O)NC(C(=O)NC(CCC(=O)NCCCCCC(=O)Nc1ccc2c(c1)CN1C(=O)c3ccccc3C1=N2)C(N)=O)C(C)C` (stereo not given), the TGI in [1] was 63.3 µM; in test [2], 38 µM; in [8] it was 41.1 µM; in test [4] it was 48.1 µM; in test [5] it was 70.8 µM; in test [6] it was 68 µM. Further, in test [7], the TGI was over 100 µM.

As to `O=P1(Oc2ccc(Cl)cc2Cl)Oc2cc3ccccc3cc2O1`, the TGI in test [9] is over 100 µM; in test [3], over 100 µM; in test [10], over 100 µM; in test [11], over 100 µM; in test [12], over 89.3 µM; in test [8], over 100 µM. Further, the TGI in test [13] and in test [14] was over 100 µM in each case.

Take `CCOC(=O)N1c2ccccc2N(C(=O)OCC)C1CC(=O)/C=C/c1ccccc1`: the TGI in test [1] was over 100 µM; in test [2], 10.6 µM; in [3] it was 6.04 µM; in test [8], 9.92 µM; in [4], 9.84 µM; in test [5], 19.8 µM. The figures for the TGI in test [6] and in test [7] were over 100 µM and 5.75 µM, respectively.
